Assay [1] has as its target T1, phosphorylated EGFR (pEGFR) (Homo sapiens, UniProt P00533).
T1 construct: performed to measure phosphorylated EGFR levels using A431 cells; endogenous in cells; host or cells: A431
As to the kind of experiment: Detection of phosphorylated EGFR (pEGFR) in EGF-stimulated A431 cells (AlphaLISA). The conditions noted are these: A431 cells (10% FBS), 4 hours incubation, EGF 30 ng/mL for 10 minutes. The class given is cell-based. The procedure, abridged: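 Cells in 10% FBS treated with compound 4 h at 37° C., then stimulated 10 min with 30 ng/mL EGF, lysed, and pEGFR measured by AlphaLISA. Inhibition normalized to DMSO and staurosporine controls; IC50 from four-parameter logistic fit.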
(In general: Alpha assays give light when donor and acceptor beads are brought close together.)

For assay [2], the target named is T2, phosphorylated ERBB2 (pERBB2) (Homo sapiens, UniProt P04626).
T2 construct: endogenous in cells; host or cells: BT-474
Kind of assay: Detection of phosphorylated ERBB2 (pERBB2) by ELISA in BT-474 cells. Format: cell-based. The settings on record: four hour incubation with compound. The procedure, abridged: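 BT-474 cells treated 4 h at 37 °C, 5% CO2 with four-fold dilutions (10 μM to 0.01 nM final). Lysates analysed by ELISA for pERBB2, TMB read at OD 450 nm. % relative activity normalised to no-cell (low) and 0.1% DMSO-treated (high) controls.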
For orientation: In an ELISA, binding on a coated surface is turned into a signal by an enzyme label.

Assay [3] addresses Ba/F3 ERBB2 YVMA (Homo sapiens, UniProt P04626, DUP772-775, cells depend on it). As to the kind of experiment: Cell viability assay (CellTiter Glo) in Ba/F3 cells engineered to express ERBB2 YVMA. Format: cell-based, mouse. The conditions noted are these: Ba/F3 cells expressing human ERBB2 YVMA mutant, 72 hours, % viability, read-out: Ba/F3 ERBB2 YVMA IC50. In outline: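 IL-3-independent mouse Ba/F3 line stably transduced with human ERBB2 YVMA, seeded at 3000 cells/well, exposed to serially diluted compound (≤0.1% DMSO) for 72 h at 37° C. ATP read by CellTiter Glo luminescence, normalised to DMSO and media-only controls; sigmoidal nonlinear regression fit.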
(In general: Cellular ATP, detected with luciferase, serves as a proxy for viable cell number.)

Bounds are passed on as bounds.

Chain of Ba/F3 ERBB2 YVMA (P04626 with tags, fused parts or gaps DUP772-775): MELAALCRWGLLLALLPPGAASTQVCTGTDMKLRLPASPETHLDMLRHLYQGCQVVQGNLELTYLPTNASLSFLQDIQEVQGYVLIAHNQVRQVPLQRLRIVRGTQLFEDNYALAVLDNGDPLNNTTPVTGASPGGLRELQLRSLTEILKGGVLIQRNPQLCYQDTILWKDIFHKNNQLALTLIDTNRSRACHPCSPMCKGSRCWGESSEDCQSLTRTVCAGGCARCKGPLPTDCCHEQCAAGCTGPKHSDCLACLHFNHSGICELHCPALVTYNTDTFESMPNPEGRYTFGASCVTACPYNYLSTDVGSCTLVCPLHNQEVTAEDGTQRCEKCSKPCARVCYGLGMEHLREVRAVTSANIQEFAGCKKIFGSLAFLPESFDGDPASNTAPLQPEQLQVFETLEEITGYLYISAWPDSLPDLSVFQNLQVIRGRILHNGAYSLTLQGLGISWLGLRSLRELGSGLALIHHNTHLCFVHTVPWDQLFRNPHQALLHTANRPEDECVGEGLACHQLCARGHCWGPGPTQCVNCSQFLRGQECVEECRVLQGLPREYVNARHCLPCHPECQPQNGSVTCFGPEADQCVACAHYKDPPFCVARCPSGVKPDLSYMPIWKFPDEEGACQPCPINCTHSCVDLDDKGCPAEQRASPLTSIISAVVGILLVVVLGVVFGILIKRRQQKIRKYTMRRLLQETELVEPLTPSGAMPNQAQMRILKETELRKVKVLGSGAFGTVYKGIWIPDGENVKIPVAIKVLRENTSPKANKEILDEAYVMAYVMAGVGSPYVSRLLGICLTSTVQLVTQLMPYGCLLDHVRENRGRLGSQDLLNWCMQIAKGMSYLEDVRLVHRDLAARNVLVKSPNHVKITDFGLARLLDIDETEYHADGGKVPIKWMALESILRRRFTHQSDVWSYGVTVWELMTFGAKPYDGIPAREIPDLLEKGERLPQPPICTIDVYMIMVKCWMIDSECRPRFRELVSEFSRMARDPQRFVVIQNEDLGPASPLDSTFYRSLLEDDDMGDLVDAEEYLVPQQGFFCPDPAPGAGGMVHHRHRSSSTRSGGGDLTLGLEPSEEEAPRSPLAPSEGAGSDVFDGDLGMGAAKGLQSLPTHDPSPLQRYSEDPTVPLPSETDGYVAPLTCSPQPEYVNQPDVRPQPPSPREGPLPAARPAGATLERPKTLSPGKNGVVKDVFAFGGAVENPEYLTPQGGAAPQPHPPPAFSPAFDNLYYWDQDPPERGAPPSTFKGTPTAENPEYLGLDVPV
T1 sequence (P00533 25-1210): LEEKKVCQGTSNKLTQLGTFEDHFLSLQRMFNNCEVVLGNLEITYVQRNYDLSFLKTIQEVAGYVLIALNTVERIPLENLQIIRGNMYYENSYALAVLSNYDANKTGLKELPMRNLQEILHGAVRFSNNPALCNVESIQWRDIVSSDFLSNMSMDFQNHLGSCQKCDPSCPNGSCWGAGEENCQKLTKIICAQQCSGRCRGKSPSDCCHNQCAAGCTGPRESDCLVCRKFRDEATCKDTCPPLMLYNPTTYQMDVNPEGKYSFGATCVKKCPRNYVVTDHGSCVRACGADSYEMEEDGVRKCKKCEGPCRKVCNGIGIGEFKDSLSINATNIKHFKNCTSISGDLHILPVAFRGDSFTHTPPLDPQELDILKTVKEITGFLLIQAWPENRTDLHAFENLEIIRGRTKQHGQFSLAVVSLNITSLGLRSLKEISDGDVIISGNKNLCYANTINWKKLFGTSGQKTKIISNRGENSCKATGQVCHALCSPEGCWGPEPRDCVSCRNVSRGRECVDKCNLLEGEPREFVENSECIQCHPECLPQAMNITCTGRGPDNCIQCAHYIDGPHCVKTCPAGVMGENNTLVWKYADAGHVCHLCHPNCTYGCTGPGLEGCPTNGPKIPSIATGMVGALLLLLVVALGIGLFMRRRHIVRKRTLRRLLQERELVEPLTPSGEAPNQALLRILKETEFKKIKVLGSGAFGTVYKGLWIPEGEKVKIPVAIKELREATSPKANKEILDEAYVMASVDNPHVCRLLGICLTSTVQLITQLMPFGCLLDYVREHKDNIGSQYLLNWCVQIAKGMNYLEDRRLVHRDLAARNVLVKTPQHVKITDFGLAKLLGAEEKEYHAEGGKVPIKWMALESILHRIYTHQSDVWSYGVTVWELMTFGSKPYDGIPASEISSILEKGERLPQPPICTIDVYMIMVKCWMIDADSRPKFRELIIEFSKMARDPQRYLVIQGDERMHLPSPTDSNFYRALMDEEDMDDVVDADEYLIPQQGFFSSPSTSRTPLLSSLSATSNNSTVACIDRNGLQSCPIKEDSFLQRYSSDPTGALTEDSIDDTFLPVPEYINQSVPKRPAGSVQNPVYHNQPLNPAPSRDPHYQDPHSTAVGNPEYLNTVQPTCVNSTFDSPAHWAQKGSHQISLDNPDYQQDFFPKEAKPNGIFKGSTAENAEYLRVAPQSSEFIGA
T2 sequence (P04626 23-1255): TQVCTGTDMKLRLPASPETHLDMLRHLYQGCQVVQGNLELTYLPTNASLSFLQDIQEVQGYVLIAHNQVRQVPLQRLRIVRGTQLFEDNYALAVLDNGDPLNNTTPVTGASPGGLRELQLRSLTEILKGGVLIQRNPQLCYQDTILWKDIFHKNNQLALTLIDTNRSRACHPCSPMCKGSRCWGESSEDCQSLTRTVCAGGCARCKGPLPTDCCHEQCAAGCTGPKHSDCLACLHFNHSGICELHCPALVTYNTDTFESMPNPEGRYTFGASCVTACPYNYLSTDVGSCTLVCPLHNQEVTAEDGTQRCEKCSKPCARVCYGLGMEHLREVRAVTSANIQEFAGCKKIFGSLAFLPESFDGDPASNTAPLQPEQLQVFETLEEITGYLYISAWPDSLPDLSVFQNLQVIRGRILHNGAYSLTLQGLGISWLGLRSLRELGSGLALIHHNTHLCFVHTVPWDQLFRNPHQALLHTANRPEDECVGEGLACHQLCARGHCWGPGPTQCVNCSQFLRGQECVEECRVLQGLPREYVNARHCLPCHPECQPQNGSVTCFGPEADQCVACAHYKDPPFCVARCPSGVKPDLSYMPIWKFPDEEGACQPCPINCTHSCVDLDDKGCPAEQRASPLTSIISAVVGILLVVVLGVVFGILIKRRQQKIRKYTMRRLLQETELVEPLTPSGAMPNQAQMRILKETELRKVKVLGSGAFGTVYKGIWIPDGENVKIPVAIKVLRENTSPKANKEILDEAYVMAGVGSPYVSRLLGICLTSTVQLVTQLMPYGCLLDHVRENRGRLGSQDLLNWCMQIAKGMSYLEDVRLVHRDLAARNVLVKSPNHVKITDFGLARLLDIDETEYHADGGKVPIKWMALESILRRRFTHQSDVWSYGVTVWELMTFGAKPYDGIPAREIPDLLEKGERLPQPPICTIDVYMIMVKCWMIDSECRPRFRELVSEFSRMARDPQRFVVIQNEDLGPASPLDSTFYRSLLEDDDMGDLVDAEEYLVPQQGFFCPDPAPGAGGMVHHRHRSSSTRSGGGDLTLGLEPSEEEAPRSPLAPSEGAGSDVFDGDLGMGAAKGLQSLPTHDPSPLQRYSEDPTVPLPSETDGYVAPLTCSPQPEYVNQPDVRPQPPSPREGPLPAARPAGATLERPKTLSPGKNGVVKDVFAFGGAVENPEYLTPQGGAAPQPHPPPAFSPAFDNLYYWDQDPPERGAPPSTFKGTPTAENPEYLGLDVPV

For the compound `C=CC(=O)N1[C@H](C)CN(c2ccc3ncnc(Nc4ccc(Oc5ccn6ncnc6c5)c(C)c4)c3n2)C[C@H]1C` [Compound 61, 1-[(2R,6R)-2,6-dimethyl-4-{4-[(3-methyl-4-{[1,2,4]triazolo[1,5-a]pyridin-7-yloxy}phenyl)amino]pyrido[3,2-d]pyrimidin-6-yl}piperazin-1-yl]prop-2-en-1-one], the results for the IC50 in assay [1] and in assay [2] were greater than 10000 nM and 254 nM, respectively. Also, the GI50 in assay [3] is greater than 500 nM.

Regarding `C=CC(=O)N1CCN(c2ccc3ncnc(Nc4ccc(Cc5ccn6ncnc6c5)c(C)c4)c3c2F)C[C@H]1C` [Compound 62, 1-[(2R)-4-{5-fluoro-4-[(3-methyl-4-{[1,2,4]triazolo[1,5-a]pyridin-7-ylmethyl}phenyl)amino]quinazolin-6-yl}-2-methylpiperazin-1-yl]prop-2-en-1-one], the IC50 – broadly, the concentration that inhibits the measured activity by half – in assay [1] is greater than 10000 nM; in assay [2], 46.9 nM. Besides, the GI50 in assay [3] is 22.7 nM.

For the compound `C=CC(=O)N1CCN(c2ccc3ncnc(Nc4ccc(Oc5ccn6ncnc6c5)c(C)c4)c3c2F)C[C@H]1C` [Compound 63, (R)-1-(4-(4-((4-([1,2,4]triazolo[1,5-a]pyridin-7-yloxy)-3-methylphenyl)amino)-5-fluoroquinazolin-6-yl)-2-methylpiperazin-1-yl)prop-2-en-1-one], the results for the IC50 in assay [1] and in assay [2] were 5500 nM and 21.4 nM, respectively. Besides, in assay [3], the GI50 was 10.5 nM.

Take `C=CC(=O)N1CCN(c2ccc3ncnc(Nc4ccc(Oc5ccc6c(c5)ncn6C)c(C)c4)c3c2F)C[C@H]1C` [Compound 64, 1-[(2R)-4-[5-fluoro-4-({3-methyl-4-[(1-methyl-1,3-benzodiazol-5-yl)oxy]phenyl}amino)quinazolin-6-yl]-2-methylpiperazin-1-yl]prop-2-en-1-one]: the IC50 was found to be 2520 nM in assay [1] and 38.6 nM in assay [2]. The GI50 in assay [3] was found to be 12.4 nM.

`CC#CC(=O)N1CCN(c2ccc3ncnc(Nc4ccc(Oc5ccc6c(c5)ncn6C)c(C)c4)c3n2)C[C@H]1C` [Compound 65, 1-[(2R)-2-methyl-4-[4-({3-methyl-4-[(1-methyl-1,3-benzodiazol-5-yl)oxy]phenyl}amino)pyrido[3,2-d]pyrimidin-6-yl]piperazin-1-yl]but-2-yn-1-one]: the IC50 in assay [1] was determined as 2790 nM; in assay [2] it was 29.3 nM. In addition, in assay [3], the GI50 came out at 4.38 nM.

With `C=CC(=O)N1CCN(c2ccc3ncnc(Nc4ccc(Cc5ccn6ncnc6c5)c(C)c4)c3n2)[C@@H](C)C1` [Compound 66, (S)-1-(4-(4-((4-([1,2,4]triazolo[1,5-a]pyridin-7-ylmethyl)-3-methylphenyl)amino)pyrido[3,2-d]pyrimidin-6-yl)-3-methylpiperazin-1-yl)prop-2-en-1-one], the IC50 in assay [1] turned out to be 9020 nM; in assay [2], 18 nM. Moreover, in assay [3], the GI50 amounted to 12.5 nM.

In the case of `C=CC(=O)N1CCN(c2ccc3ncnc(Nc4ccc(Oc5ccc6c(c5)ncn6C)c(C)c4)c3n2)[C@@H](C)C1` [Compound 67, 1-[(3S)-3-methyl-4-[4-({3-methyl-4-[(1-methyl-1,3-benzodiazol-5-yl)oxy]phenyl}amino)pyrido[3,2-d]pyrimidin-6-yl]piperazin-1-yl]prop-2-en-1-one], the results for the IC50 in assay [1] and in assay [2] were 2490 nM and 28.2 nM, respectively. Besides, the GI50 in assay [3] worked out at 13.9 nM.

For `C=CC(=O)N1CCN(c2ccc3ncnc(Nc4ccc(Cc5ccc6c(c5)ncn6C)c(C)c4)c3n2)[C@@H](C)C1` [Compound 68, (S)-1-(3-methyl-4-(4-((3-methyl-4-((1-methyl-1H-benzo[d]imidazol-5-yl)methyl)phenyl)amino)pyrido[3,2-d]pyrimidin-6-yl)piperazin-1-yl)prop-2-en-1-one], the IC50 stood at 2570 nM in assay [1] and 44.8 nM in assay [2]. Besides, the GI50 in assay [3] is 14.7 nM.

Regarding `C=CC(=O)N1CCN(c2cc3c(Nc4ccc(Oc5ccn6ncnc6c5)c(C)c4)ncnc3cn2)[C@@H](C)C1` [Compound 69, (S)-1-(4-(4-((4-([1,2,4]triazolo[1,5-a]pyridin-7-yloxy)-3-methylphenyl)amino)pyrido[3,4-d]pyrimidin-6-yl)-3-methylpiperazin-1-yl)prop-2-en-1-one], the IC50 in assay [1] is greater than 10000 nM; in assay [2], 59.6 nM. The GI50 in assay [3] is 155 nM.

For `C=CC(=O)N1CCN(c2ncc3ncnc(Nc4ccc(Oc5ccn6ncnc6c5)c(C)c4)c3n2)[C@@H](C)C1` [Compound 70, 1-[(3S)-3-methyl-4-{8-[(3-methyl-4-{[1,2,4]triazolo[1,5-a]pyridin-7-yloxy}phenyl)amino]pyrimido[5,4-d][1,3]diazin-2-yl}piperazin-1-yl]prop-2-en-1-one], the 50% inhibitory concentration (IC50) is 2320 nM in assay [1] and 16.3 nM in assay [2]. Also, the GI50 in assay [3] stood at 9.96 nM.

On to `CC#CC(=O)N1CCN(c2cc3c(Nc4ccc(Oc5ccc6c(c5)ncn6C)c(C)c4)ncnc3cn2)C[C@H]1C` [Compound 71, 1-[(2R)-2-methyl-4-[4-({3-methyl-4-[(1-methyl-1,3-benzodiazol-5-yl)oxy]phenyl}amino)pyrido[3,4-d]pyrimidin-6-yl]piperazin-1-yl]but-2-yn-1-one], for which the IC50 in assay [1] was 1020 nM; in assay [2], 22 nM. Further, in assay [3], the GI50 came to 20.4 nM.

`CC#CC(=O)N1CCN(c2ncc3ncnc(Nc4ccc(Oc5ccc6c(c5)ncn6C)c(C)c4)c3n2)C[C@H]1C` [Compound 72, (R)-1-(2-methyl-4-(8-((3-methyl-4-((1-methyl-1H-benzo[d]imidazol-5-yl)oxy)phenyl)amino)pyrimido[5,4-d]pyrimidin-2-yl)piperazin-1-yl) but-2-yn-1-one]: the IC50 was 2680 nM in assay [1] and 67.9 nM in assay [2]. In assay [3], the GI50 came to 10.1 nM.

Take `C=CC(=O)N1CC2CCC(C1)N2c1ccc2ncnc(Nc3ccc(Oc4ccc5c(c4)ncn5C)c(C)c3)c2n1` [Compound 73, 1-{8-[4-({3-methyl-4-[(1-methyl-1,3-benzodiazol-5-yl)oxy]phenyl}amino)pyrido[3,2-d]pyrimidin-6-yl]-3,8-diazabicyclo[3.2.1]octan-3-yl}prop-2-en-1-one]: the values for the IC50 in assay [1] and in assay [2] were 281 nM and 32.5 nM, respectively. The GI50 in assay [3] was 29 nM.

With `C=CC(=O)N1C2CCC1CN(c1ccc3ncnc(Nc4ccc(Oc5ccc6c(c5)ncn6C)c(C)c4)c3n1)C2` [Compound 74, 1-(3-(4-((3-methyl-4-((1-methyl-1H-benzo[d]imidazol-5-yl)oxy)phenyl)amino)pyrido[3,2-d]pyrimidin-6-yl)-3,8-diazabicyclo[3.2.1]octan-8-yl)prop-2-en-1-one], the concentration for half-maximal inhibition (IC50) in assay [1] came to 1030 nM; in assay [2], 37.2 nM. Further, in assay [3], the GI50 is 27.9 nM.

As to `CC#CC(=O)N1CC2CCC(C1)N2c1ccc2ncnc(Nc3ccc(Oc4ccc5c(c4)ncn5C)c(C)c3)c2n1` [Compound 75, 1-(8-(4-((3-methyl-4-((1-methyl-1H-benzo[d]imidazol-5-yl)oxy)phenyl)amino)pyrido[3,2-d]pyrimidin-6-yl)-3,8-diazabicyclo[3.2.1]octan-3-yl)but-2-yn-1-one], the values for the IC50 in assay [1] and in assay [2] were 4060 nM and 42.3 nM, respectively. Moreover, the GI50 in assay [3] is 8.19 nM.

On to `C=CC(=O)N1CCN(c2ncc3ncnc(Nc4ccc(Oc5ccc6c(c5)ncn6C)c(C)c4)c3n2)[C@@H](C)C1` [Compound 76, 1-[(3S)-3-methyl-4-[8-({3-methyl-4-[(1-methyl-1,3-benzodiazol-5-yl)oxy]phenyl}amino)-[1,3]diazino[5,4-d]pyrimidin-2-yl]piperazin-1-yl]prop-2-en-1-one], for which the IC50 is 2000 nM in assay [1] and 24.5 nM in assay [2]. Besides, the GI50 in assay [3] turned out to be 10 nM.

Regarding `C=CC(=O)N1CCN(c2ncc3ncnc(Nc4ccc(Cc5ccc6c(c5)ncn6C)c(C)c4)c3n2)[C@@H](C)C1` [Compound 77, 1-[(3S)-3-methyl-4-[8-({3-methyl-4-[(1-methyl-1,3-benzodiazol-5-yl)methyl]phenyl}amino)-[1,3]diazino[5,4-d]pyrimidin-2-yl]piperazin-1-yl]prop-2-en-1-one], the IC50 stood at 3550 nM in assay [1] and 73.4 nM in assay [2]. Moreover, the GI50 in assay [3] came out at 16.4 nM.

Consider `C=CC(=O)N1CCN(c2ccc3ncnc(Nc4ccc(Cc5ccc6c(c5)ncn6C)c(C)c4)c3c2F)C[C@H]1C` [Compound 78, 1-[(2R)-4-[5-fluoro-4-({3-methyl-4-[(1-methyl-1,3-benzodiazol-5-yl)methyl]phenyl}amino)quinazolin-6-yl]-2-methylpiperazin-1-yl]prop-2-en-1-one], for which the IC50 came out at 5130 nM in assay [1] and 70.4 nM in assay [2]. For the same compound, the GI50 in assay [3] came out at 22.6 nM.

`C=CC(=O)N1CCN(c2ccc3ncnc(Nc4ccc(Cc5ccn6ncnc6c5)c(C)c4)c3c2F)C(C)C1` (stereo not drawn) [Compound 79, 1-(4-(4-((4-([1,2,4]triazolo[1,5-a]pyridin-7-ylmethyl)-3-methylphenyl)amino)-5-fluoroquinazolin-6-yl)-3-methylpiperazin-1-yl)prop-2-en-1-one]: the IC50 in assay [1] is greater than 10000 nM; in assay [2] it was 1600 nM. Also, the GI50 in assay [3] was greater than 500 nM.

Values taken from patent publication US20250136595A1, “ACYLATED HETEROCYCLIC QUINAZOLINE DERIVATIVES AS INHIBITORS OF ERBB2” (Enliven Inc., priority 2022, published 2025).
